Experiments:
[1] = Polydispersity index (PDI) by dynamic light scattering; format: physicochemical; details: for PDI 1st IM / PDI 2nd IM: RSV-F replicon RNA LNP, DLS; for PDI 1st IM: 1st immunization; for PDI 2nd IM: 2nd immunization
Protocol: Unless indicated otherwise, all PDIs referred to herein are the PDI of the fully formed nanoparticle, as measured by dynamic light scattering on a Malvern Zetasizer. The nanoparticle sample was diluted in phosphate buffered saline (PBS) so that the count rate was approximately 200-400 kcts. The data is presented in Table 3 as a weighted average of the intensity measure.
(§1) % entrapment (% E), Concentration of RNA (Conc), particle size measured by DLS, and polydispersity reported by DLS of LNPs prepared with different cationic lipids

hLeptin = assay: Human leptin in mouse plasma (ELISA) after IV tail vein injection of encapsulated leptin mRNA; format: in vivo; details: 0.4 mpk, C57 mice, @ 24 h
Protocol: Human leptin in mouse plasma was measured by ELISA. Antibodies purchased from the R&D Systems duoset (Cat# DY398E, part#840279 for capture antibody and part#840280 for detection antibody) were reconstituted using PBS and titered, again using PBS. The capture antibody was coated at 4 ug/ml in 30 ul/well on a white Nunc® Maxisorp 384 well plate (Cat#460372). After an overnight incubation at room temperature the capture antibody was aspirated and the plate blocked for 2 hours at room temperature with 90 ul/well of KPL milk blocker (Cat#50-82-00). Once the incubation was completed the plate was aspirated and recombinant standards and samples were added to the plate at 30 ul/well for 2 hours at 37° C. while shaking at 600 rpm. Sample/standard dilutions were made using casein sample diluent. Washing/aspiration 3 times with 100 ul/well followed, using Teknova plate wash solution (Cat# P1192). […] The plate was quickly read using a SpectramaxM5 plate reader with a 50 ms integration time. […]
Before the tail vein injection, mouse body weights were recorded and diet weighted, with mice grouped according to their body weights. […]
On day 0, animals were weighed and sorted according to average body weight. Mice were dosed, and food intake (FI) was recorded, on each of days 1-7 and days 9, 11, and 16.

[2] = Percentage of encapsulated RNA and RNA concentration of replicon liposomes (Quant-iT RiboGreen); format: physicochemical; details: for %E (% entrapment) 1st IM / Conc (Concentration of RNA) 1st IM: RSV-F replicon RNA LNP prepared for 1st immunization; for %E (% entrapment) 2nd IM / Conc (Concentration of RNA) 2nd IM: RSV-F replicon RNA LNP prepared for 2nd immunization
Protocol: RNA was encapsulated in liposomes made essentially by the method of Geall et al. (2012) PNAS vol. 109 (36): 14604-14609, Jeffs et al. (2005) Pharmaceutical Research 22 (3):362-372, and Maurer et al. (2001) Biophysical Journal, 80: 2310-2326 The liposomes were made of 10% DSPC (zwitterionic), 40% cationic lipid, 48% cholesterol and 2% PEG-conjugated DMG (2 kDa PEG). These proportions refer to the % moles in the total liposome.
Briefly, lipids were dissolved in ethanol (2 ml), a RNA replicon was dissolved in buffer (2 ml, 100 mM sodium citrate, pH 6) and these were mixed with 2 ml of buffer followed by 1 hour of equilibration. The mixture was then dialized overnight against 1×PBS. The resulting product contained liposomes, with ˜70-95% encapsulation efficiency. For in vitro and in vivo experiments formulations were diluted to the required RNA concentration with 1×PBS.
The percentage of encapsulated RNA and RNA concentration were determined by Quant-iT RiboGreen RNA reagent kit (Invitrogen), following manufacturer's instructions. The ribosomal RNA standard provided in the kit was used to generate a standard curve. Liposomes were diluted 10× or 100× in 1×TE buffer (from kit) before addition of the dye. Separately, liposomes were diluted 10× or 100× in 1×TE buffer containing 0.5% Triton X before addition of the dye (to disrupt the liposomes and thus to assay total RNA). Thereafter an equal amount of dye was added to each solution and then ˜180 μL of each solution after dye addition was loaded in duplicate into a 96 well tissue culture plate. The fluorescence (Ex 485 nm, Em 528 nm) was read on a microplate reader. All liposome formulations were dosed in vivo based on the encapsulated amount of RNA.
as §1

| SMILES | PDI ([1]; FLuc mRNA) | PDI ([1]; FVII siRNA) | PDI ([1]; Gluc mRNA) | PDI 1st IM [1] | PDI 2nd IM [1] | PDI ([1]; hFIX mRNA) | PDI ([1]; hLep plasmid) | PDI ([1]; hLeptin mRNA) | PDI ([1]; mEPO mRNA) | PDI ([1]; pDNA) | Expression of protein following IV injection of encapsulated mRNA: hLeptin (hLeptin) [ng/mL] | %E (% entrapment) 1st IM [2] [%] | Conc (Concentration of RNA) 1st IM [2] [ng/mL] | %E (% entrapment) 2nd IM [2] [%] | Conc (Concentration of RNA) 2nd IM [2] [ng/mL] |
| --- | --- | --- | --- | --- | --- | --- | --- | --- | --- | --- | --- | --- | --- | --- | --- |
| CCCCC/C=C\C/C=C\CCCCCCCC(=O)OCC(COC(=O)CCCCCCC/C=C\C/C=C\CCCCC)COC(=O)C1(C)CCN(C)C1 (stereo not shown) [Example 1, (9Z,9′Z,12Z,12′Z)-2-(((1,3-dimethylpyrrolidine-3-carbonyl)oxy)methyl)propane-1,3-diyl bis(octadeca-9,12-dienoate)] | 0.152 | 0.049 | 0.136 | 0.122 | 0.11 | 0.090 | 0.182 | 0.105 | 0.145 | 0.100 | 12.3 | 96.21 | 10352 | 91.99 | 11279 |
| CCCCC/C=C\C/C=C\CCCCCCCC(=O)OCC(COC(=O)CCC(OCCCCCCCC)OCCCCCCCC)COC(=O)OCCCN(CC)CC (stereo not shown) [Example 13, (9Z,12Z)-3-((4,4-bis(octyloxy)butanoyl)oxy)-2-((((3-(diethylamino)propoxy)carbonyl)oxy)methyl)propyl octadeca-9,12-dienoate] | 0.140 | 0.037 | 0.099 |  |  | 0.154 | 0.158 | 0.093 | 0.129 | 0.160 | 3.8 |  |  |  |  |
| CCCCC/C=C\C/C=C\CCCCCCCC(=O)OCC(COC(=O)CCC(OCCCCCCCC)OCCCCCCCC)COC(=O)OCC1CCCN(CC)C1 (stereo not shown) [Example 15, (9Z,12Z)-3-((4,4-bis(octyloxy)butanoyl)oxy)-2-(((((1-ethylpiperidin-3-yl)methoxy)carbonyl)oxy)methyl)propyl octadeca-9,12-dienoate] | 0.132 |  | 0.133 | 0.121 | 0.097 | 0.182 | 0.149 | 0.125 | 0.125 | 0.110 |  | 94.26 | 10203 | 96.64 | 10091 |
